Patent EP0201988A2, “Dihydropyridazinone derivatives” (SMITH KLINE & FRENCH LABORATORIES LIMITED, priority 1985, dated 1986)

Legend:
PDE (Peak III) = experiment: Inhibition of phosphodiesterases, PDE (Peak III) enzyme assay; assay type: biochemical; details: PDE (Peak III) from cat heart, 1 µM cyclic AMP
Description: Sepharose is a registered trademark of Pharmacia Fine Chemicals Inc. The high-speed supernatant from a cat heart homogenate (2 g tissue in 20 ml 20 mM PiPES - (Piperazine-N-N'-bis[2-ethanesulfonic acid]), 50 mM Na acetate, pH 6.5) was applied to a 15 ^x 1.5 cm column of DEAE-Sepharose equilibrated with the homogenisation buffer. The PDE activities were eluted with a gradient of 0.05-1 M Na acetate in 20 mM PIPES.
The enzyme was assayed by incubation at 37° for 4-30 min in 50 mM Tris, 5 mM MgCl2, pH 7.5 with [3-H] cyclic nucleotide (4 ^x 10^5 disintegrations min-') and [14-C] nucleotide 5' monophosphate (3 ^x 10^3 disintegrations min^-1). The assay was stopped by boiling, and the [3-H] […] The reaction mixture was diluted with 0.5 ml 100 mM HEPES (N-2-Hydroxyethylpiperazine-N'-2-ethanesulfonic acid), 100 mM NaCl, pH 8.5, and applied to the column. The column was extensively washed with the same buffer, and the 5' nucleotide eluted with 6 ml 025 M acetic acid.

anaesthetised cats = experiment: Cardiac stimulant activity in vivo (anaesthetised cats); details: anaesthetised cats pretreated with pempidine and propranolol, administered intravenously; for ED50: Felis catus, iv, read-out: ED50 (dose to increase left ventricular dp/dt max by 50%)
ventricular strips = experiment: Cardiac stimulant activity in vitro (electrically stimulated ventricular strips); assay type: cell-based, Guinea pigs; details: Cavia porcellus; guinea pig right ventricle strips, stimulated at 1.0 Hz, Krebs Henseleit solution at 37°C, concentration in the bathing fluid; read-out: EC50 (50% increase in the force of contraction of the ventricular strips)
Description: The compounds of formula (I) and their pharmaceutically acceptable salts are tested for cardiac stimulant activity following a procedure based on that of S.C. Verma and J. H. McNeill (J.Pharm & Exp. Therapeutics, 200, 352-362 (1977)). Guinea pigs (500-700 g) of either sex are sacrificed and the hearts are quickly removed and transferred to a dissecting dish containing oxygenated bathing fluid. While in the bathing medium, the right ventricle is cut into two strips. The strips are each suspended in a 50 ml bath containing Krebs Henseleit solution at 37°C, and the bath is bubbled with 95% oxygen and 5% carbon dioxide. The ventricular strips are electrically stimulated at a frequency of 1.0 Hz, at double the threshold voltage. A resting tension of 1.0 g is applied to the strips and the tension is kept constant by readjustment during an equilibration period of 60 minutes. The bathing fluid is frequently changed during this period. When a steady base line is obtained, a compound under test is added to the bathing fluid and a cumulative concentration response curve is plotted.

Cc1[nH]c(=O)c(C#N)cc1-c1ccncc1 (single isomer, unassigned) [Milrinone] gave an IC50 (PDE (Peak III)) of 2.2 µM.

With Nc1cc(-c2ccncc2)c[nH]c1=O [Amrinone] the ED50 (anaesthetised cats) was 5.6 µmol/kg, the duration of activity (anaesthetised cats) was “short duration of activity” and the IC50 (PDE (Peak III)) was 51.8 µM.

For CC1CC(=O)NN=C1c1ccc(NC2=NC(=O)CN2)cc1 (centres unmarked) [Example 1, 6-[4-(4-Oxo-2-imidazolin-2-ylamino)phenyl]-5-methyl-4,5-dihydro-3(2H)-pyridazinone], the EC50 (ventricular strips) was 14 µM, the ED50 (anaesthetised cats) was 0.4 µmol/kg and the duration of activity (anaesthetised cats) was “long duration of activity”. For the same compound, the IC50 (PDE (Peak III)) was 1.84 µM.
